Reference: the supplement of paper PMC11061612

How the values were obtained:
Test in all cases: Bliss excess, mean over the matrix (fraction); higher = more synergy
[1] = system: BT-474 (Breast Carcinoma)
In short: (§1)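 After 24 hours at 37°C and 5% CO2 in 1536-well plates, cells in DMEM/F12 or RPMI plus 10% FBS received two-drug dose matrices for 72 hours. Viability came from CellTiter-Glo 2.0 luminescence and was scaled as inhibition, anchored at 0 by vehicle wells and at 1 by blank wells. Combination Emax is taken as the second-highest inhibition in the matrix, and Bliss excess as the observed combination effect less EA + EB − EA·EB, with EA and EB the single-agent effects.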

[2] = system: C2BBe1 (Colorectal Carcinoma)
In short: as §1

[3] = system: CAL-85-1 (Breast Carcinoma)
In short: as §1

[4] = system: COR-L105 (Lung Adenocarcinoma)
In short: as §1

DK-MG (Glioblastoma) = system: DK-MG (Glioblastoma)
In short: as §1

[5] = system: HT-1197 (Bladder Carcinoma)
In short: as §1

[6] = system: KNS-62 (Squamous Cell Lung Carcinoma)
In short: as §1

[7] = system: L-363 (Plasma Cell Myeloma)
In short: as §1

MG-63 (Osteosarcoma) = system: MG-63 (Osteosarcoma)
In short: as §1

[8] = system: MRK-nu-1 (Breast Carcinoma)
In short: as §1

[9] = system: NCI-H1648 (Lung Adenocarcinoma)
In short: as §1

[10] = system: NCI-H1975 (Lung Adenocarcinoma)
In short: as §1

[11] = system: NCI-H2009 (Lung Adenocarcinoma)
In short: as §1

[12] = system: NCI-H2170 (Squamous Cell Lung Carcinoma)
In short: as §1

[13] = system: RS4-11 (B-Lymphoblastic Leukemia)
In short: as §1

[14] = system: SBC-3 (Small Cell Lung Carcinoma)
In short: as §1

[15] = system: SBC-5 (Small Cell Lung Carcinoma)
In short: as §1

SK-MEL-24 (Melanoma) = system: SK-MEL-24 (Melanoma)
In short: as §1

[16] = system: SUP-HD1 (Hodgkin's Lymphoma)
In short: as §1

[17] = system: TK (B-Cell Non-Hodgkin's Lymphoma)
In short: as §1

What does the source list for CN(CCO)CC[C@H](CSc1ccccc1)Nc1ccc(S(=O)(=O)NC(=O)c2ccc(N3CCC([C@@H](O)c4ccccc4-c4ccc(Cl)cc4)CC3)cc2)cc1S(=O)(=O)C(F)(F)F [AZD4320] + CCN(CCO)CCCOc1ccc2c(Nc3cc(CC(=O)Nc4cccc(F)c4)[nH]n3)ncnc2c1 [AZD2811] (first compound max 1 µM, 7x7, partner max 1 µM)?
Bliss excess [1]: 0.0081; Bliss excess [2]: -0.0326; Bliss excess [3]: 0.0218; Bliss excess [4]: -0.0523; Bliss excess (DK-MG (Glioblastoma)): -0.0213; Bliss excess [5]: -0.016; Bliss excess [6]: -0.0204; Bliss excess [7]: -0.015; Bliss excess (MG-63 (Osteosarcoma)): 0.0838; Bliss excess [8]: 0.0505; Bliss excess [9]: 0.0065; Bliss excess [10]: -0.0226; Bliss excess [11]: -0.0461; Bliss excess [12]: -0.051; Bliss excess [13]: -0.0011; Bliss excess [14]: 0.0224; Bliss excess [15]: -0.0075; Bliss excess (SK-MEL-24 (Melanoma)): -0.0647; Bliss excess [16]: 0.0476; Bliss excess [17]: 0.129

What does the source list for CN(CCO)CC[C@H](CSc1ccccc1)Nc1ccc(S(=O)(=O)NC(=O)c2ccc(N3CCC([C@@H](O)c4ccccc4-c4ccc(Cl)cc4)CC3)cc2)cc1S(=O)(=O)C(F)(F)F [AZD4320] + C[C@@H]1COCCN1C2=NC(=NC(=C2)C3(CC3)[S@](=N)(=O)C)C4=C5C=CNC5=NC=C4 [AZD6738] (first compound max 1 µM, 7x7, partner max 10 µM)?
Bliss excess [1]: -0.0901; Bliss excess [2]: -0.14; Bliss excess [3]: -0.0048; Bliss excess [4]: -0.0711; Bliss excess (DK-MG (Glioblastoma)): -0.0439; Bliss excess [5]: -0.0672; Bliss excess [6]: -0.0338; Bliss excess [7]: -0.007; Bliss excess (MG-63 (Osteosarcoma)): -0.0762; Bliss excess [8]: 0.0039; Bliss excess [9]: -0.0523; Bliss excess [10]: -0.0134; Bliss excess [11]: -0.0099; Bliss excess [12]: -0.0478; Bliss excess [13]: 0.026; Bliss excess [14]: -0.0184; Bliss excess [15]: -0.0511; Bliss excess (SK-MEL-24 (Melanoma)): -0.0584; Bliss excess [16]: -0.0207; Bliss excess [17]: 0.0338

Which results are given for Cc1cc2ncnn2cc1Nc1ncc2c(n1)n(C1CCOCC1)c(=O)n2C [AZD7648] + C=CCn1c(=O)c2cnc(Nc3ccc(N4CCN(C)CC4)cc3)nc2n1-c1cccc(C(C)(C)O)n1 [AZD1775] (first compound max 10 µM, partner max 1 µM)?
Bliss excess [1]: 0.0103; Bliss excess [2]: -0.0115; Bliss excess [3]: -0.0292; Bliss excess [4]: -0.0431; Bliss excess (DK-MG (Glioblastoma)): 0.0398; Bliss excess [5]: -0.0553; Bliss excess [6]: 0.0584; Bliss excess [7]: 0.0185; Bliss excess (MG-63 (Osteosarcoma)): 0.0269; Bliss excess [8]: 0.0279; Bliss excess [9]: 0.0026; Bliss excess [10]: -0.0107; Bliss excess [11]: -0.0271; Bliss excess [12]: -0.0972; Bliss excess [13]: 0.0667; Bliss excess [14]: -0.0374; Bliss excess [15]: -0.0136; Bliss excess (SK-MEL-24 (Melanoma)): -0.015; Bliss excess [16]: -0.0943; Bliss excess [17]: -0.0568

How did the Bliss excess [1] turn out when CN(CCO)CC[C@H](CSc1ccccc1)Nc1ccc(S(=O)(=O)NC(=O)c2ccc(N3CCC([C@@H](O)c4ccccc4-c4ccc(Cl)cc4)CC3)cc2)cc1S(=O)(=O)C(F)(F)F [AZD4320] + C1CN(CCC1(C(=O)N[C@@H](CCO)C2=CC=C(C=C2)Cl)N)C3=NC=NC4=C3C=CN4 [Capivasertib] (first compound max 1 µM, 7x7, partner max 3 µM) was run?
The Bliss excess was -0.0487.

What about the Bliss excess [2] of the same molecule?
Its Bliss excess is -0.0214.

And the Bliss excess [3]?
Its Bliss excess is -0.0219.

And the Bliss excess [4]?
Its Bliss excess is -0.0378.

And the Bliss excess (DK-MG (Glioblastoma))?
The Bliss excess was -0.0847.

And the Bliss excess [5]?
The Bliss excess was 0.0311.

And the Bliss excess [6]?
The Bliss excess was -0.0637.

What about the Bliss excess [7] of the same molecule?
The Bliss excess was 0.0659.

What about the Bliss excess (MG-63 (Osteosarcoma)) of the same molecule?
Its Bliss excess is -0.0785.

And the Bliss excess [8]?
Its Bliss excess is -0.0681.

What about the Bliss excess [9] of the same molecule?
The Bliss excess was -0.067.

What about the Bliss excess [10] of the same molecule?
The Bliss excess was -0.0459.

And the Bliss excess [11]?
Its Bliss excess is -0.0467.

What about the Bliss excess [12] of the same molecule?
The Bliss excess was -0.023.

And the Bliss excess [13]?
Its Bliss excess is 0.0024.

And the Bliss excess [14]?
Its Bliss excess is -0.0793.

And the Bliss excess [15]?
Its Bliss excess is -0.0207.

And the Bliss excess (SK-MEL-24 (Melanoma))?
Its Bliss excess is -0.0428.

And the Bliss excess [16]?
The Bliss excess was -0.022.

What about the Bliss excess [17] of the same molecule?
The Bliss excess was 0.0106.

Which Bliss excess [1] does the source give for Cc1cc2ncnn2cc1Nc1ncc2c(n1)n(C1CCOCC1)c(=O)n2C [AZD7648] + C[C@@H]1COCCN1C2=NC(=NC(=C2)C3(CC3)[S@](=N)(=O)C)C4=C5C=CNC5=NC=C4 [AZD6738] (first compound max 10 µM, 7x7, partner max 10 µM) here?
Its Bliss excess is 0.0245.

What about the Bliss excess [2] of the same molecule?
Its Bliss excess is 0.0209.

What about the Bliss excess [3] of the same molecule?
The Bliss excess was 0.0307.

What about the Bliss excess [4] of the same molecule?
The Bliss excess was -0.0511.

And the Bliss excess (DK-MG (Glioblastoma))?
Its Bliss excess is 0.0297.

And the Bliss excess [5]?
Its Bliss excess is -0.0226.

What about the Bliss excess [6] of the same molecule?
The Bliss excess was 0.0778.

And the Bliss excess [7]?
The Bliss excess was 0.0096.

And the Bliss excess (MG-63 (Osteosarcoma))?
Its Bliss excess is 0.0557.

And the Bliss excess [8]?
The Bliss excess was 0.0054.

What about the Bliss excess [9] of the same molecule?
The Bliss excess was -0.0379.

What about the Bliss excess [10] of the same molecule?
Its Bliss excess is 0.015.

What about the Bliss excess [11] of the same molecule?
The Bliss excess was 0.0494.

And the Bliss excess [12]?
Its Bliss excess is -0.0153.

What about the Bliss excess [13] of the same molecule?
Its Bliss excess is -0.058.

What about the Bliss excess [14] of the same molecule?
The Bliss excess was 0.

And the Bliss excess [15]?
The Bliss excess was 0.0284.

What about the Bliss excess (SK-MEL-24 (Melanoma)) of the same molecule?
Its Bliss excess is 0.0523.

And the Bliss excess [16]?
Its Bliss excess is -0.0375.

What about the Bliss excess [17] of the same molecule?
Its Bliss excess is -0.0185.

What does the source list for Cc1cc2ncnn2cc1Nc1ncc2c(n1)n(C1CCOCC1)c(=O)n2C [AZD7648] + CN(C)CCCOc1ccc(-c2ccc3ncc4c(c3c2)n(C2CCOCC2)c(=O)n4C)cn1 [AZD0156] (first compound max 10 µM, 7x7, partner max 1 µM)?
Bliss excess [1]: 0.0241; Bliss excess [2]: -0.0408; Bliss excess [3]: -0.0542; Bliss excess [4]: -0.0369; Bliss excess (DK-MG (Glioblastoma)): 0.0157; Bliss excess [5]: -0.0117; Bliss excess [6]: -0.0064; Bliss excess [7]: 0.0303; Bliss excess (MG-63 (Osteosarcoma)): 0.0397; Bliss excess [8]: 0.0348; Bliss excess [9]: 0.0176; Bliss excess [10]: -0.0071; Bliss excess [11]: -0.0019; Bliss excess [12]: 0.009; Bliss excess [13]: 0.0397; Bliss excess [14]: 0.0332; Bliss excess [15]: 0.0236; Bliss excess (SK-MEL-24 (Melanoma)): -0.0325; Bliss excess [16]: -0.0306; Bliss excess [17]: -0.0264
